In patent US20260007613A1, “LONG-ACTING LOW-TOXICITY NOVEL CATIONIC LIPID COMPOUNDS AND COMPOSITION THEREOF” (BEIJING YOUCAREKECHUANG PHARMACEUTICAL TECHNOLOGY CO., LTD., priority 2023, published 2026):
Several values for one entry are separate records, joined by “and”; a condition that tells them apart may be missing. Equal values may be shown once.

Experiments:
liver = assay: Distribution of liposomes in mice: protein expression in the liver (live imaging); format: in vivo; conditions: at 6 h, intramuscular injection
Experimental: The LNP formulation containing […] Fluc-mRNA was injected intramuscularly into female BALB/C mice aged 4 to 6 weeks old and weighed 17 to 19 g, and the mice were intraperitoneally injected with fluorescent imaging substrate at specific time points after administration (6 h, 24 h, 48 h and 7 d), where the mice were free to move for 5 minutes, and then the average radiation intensity (corresponding to fluorescence expression intensity) of the protein expression of the mRNA carried by the LNP in the mice was detected by the IVIS Spectrum small animal live imaging device.
At 24 h, the LNP formulations prepared from all compounds had been metabolized in the liver and had no protein expression.

female BALB/C mice = assay: Live imaging in mice: protein expression of Fluc-mRNA delivered by LNP formulations; format: in vivo; conditions: for average radiation intensity, times that of ALC-0315: comparator ALC-0315; for average radiation intensity, times that of HHMA: comparator HHMA; for average radiation intensity, times that of SM-102: comparator SM-102; for expression of mRNA in mice, times that of YK-302: comparator YK-302; for expression amount, times that of YK-309: comparator YK-309; for expression amount, times that of YK-313: comparator YK-313; for expression amount, times that of YK-321: comparator YK-321; for average radiation intensity, times that of compound 21: comparator compound 21; for average radiation intensity, times that of compound 23: comparator compound 23
Method in brief: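 Female BALB/C mice (4-6 weeks, 17-19 g) received LNP-formulated Fluc-mRNA […] intramuscularly. At 6 h, 24 h, 48 h and 7 d, luciferase substrate given intraperitoneally, and after 5 min average radiance measured by IVIS whole-body imaging.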

[1] = Particle size and polydispersity index (PDI) of lipid nanoparticles by dynamic light scattering; format: physicochemical; conditions: LNP formulation prepared from the cationic lipid, 25° C.
Experimental: The particle size and polydispersity index (PDI) were determined by dynamic light scattering using Malvern laser particle size analyzer.
10 μL of the liposome solution was weighed, diluted to 1 mL with RNase-free deionized water, and added to the sample pool. Each sample was measured in triplicate. The measurement conditions were: […] scattering angle, and 25° C.

293T cells [2] = assay: Cell survival rate determination (CCK-8); format: cell-based
Method in brief: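 Readout was CCK-8 absorbance (450 nm, 1 h) taken after a 24 h exposure of overnight-adhered 293T cells (10,000 per well, 96-well) to Lipofectamine 3000 or to LNPs carrying Fluc-mRNA, lipid molar ratio 49:10:39.5:1.5 cationic/neutral/structured/polymer-conjugated.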

293T cells [3] = assay: Fluorescent detection of Fluc-mRNA (cell transfection efficiency of LNP formulations); format: cell-based
Method in brief: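 Transfection read-out: IVIS imaging after […], 24 h after adding LNPs (lipid molar ratio 49:10:39.5:1.5 cationic/neutral/structured/polymer-lipid; […] Fluc-mRNA). Adherent 293T cells were seeded overnight at 10,000 per well beforehand.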

With CCCCCCCCCCCOC(=O)CCCCCN(CCCC(=O)OCCCC(CCCCCCCCCC)CCCCCCCCCC)C[C@H](O)CN(CC)CCO [YK-310] the “protein expression in the liver” value (liver) was “no protein expression in the liver”, the “average radiation intensity, times that of ALC-0315” value (female BALB/C mice; 6 h) was 10.56 times and the “average radiation intensity, times that of HHMA” value (female BALB/C mice; 6 h) was 14.02 times. The “average radiation intensity, times that of SM-102” value (female BALB/C mice; 6 h) was 13.01 times, the “expression of mRNA in mice, times that of YK-302” value (“expression of mRNA in mice” for short) (female BALB/C mice; 6 h) was 625.87 times and the “expression amount, times that of YK-309” value (female BALB/C mice; 6 h) was 138.93 times. For the same molecule, the “expression amount, times that of YK-313” value (female BALB/C mice; 6 h) was 20.64 times, the “expression amount, times that of YK-321” value (female BALB/C mice; 6 h) was 17.70 times and the “average radiation intensity, times that of compound 21” value (female BALB/C mice; 6 h) was 14.95 times. For the same molecule, the “average radiation intensity, times that of compound 23” value (female BALB/C mice; 6 h) was 15.48 times, the average radiation intensity (female BALB/C mice; 6 h after intramuscular injection) was 9125240 and the “average radiation intensity, times that of ALC-0315” value (female BALB/C mice; 24 h) was 15.50 times. The “average radiation intensity, times that of HHMA” value (female BALB/C mice; 24 h) was 24.61 times, the “average radiation intensity, times that of SM-102” value (female BALB/C mice; 24 h) was 24.51 times and the “expression of mRNA in mice” value (female BALB/C mice; 24 h) was 746.29 times. The “expression amount, times that of YK-309” value (female BALB/C mice; 24 h) was 175.52 times, the “expression amount, times that of YK-313” value (female BALB/C mice; 24 h) was 28.27 times and the “expression amount, times that of YK-321” value (female BALB/C mice; 24 h) was 29.16 times and ~29 times. For the same molecule, the “average radiation intensity, times that of compound 21” value (female BALB/C mice; 24 h) was 26.88 times, the “average radiation intensity, times that of compound 23” value (female BALB/C mice; 24 h) was 28.24 times and the average radiation intensity (female BALB/C mice; 24 h after intramuscular injection) was 2952310. For the same molecule, the “average radiation intensity, times that of ALC-0315” value (female BALB/C mice; 48 h) was 24.64 times, the “average radiation intensity, times that of HHMA” value (female BALB/C mice; 48 h) was 30.13 times and the “average radiation intensity, times that of SM-102” value (female BALB/C mice; 48 h) was 30.14 times. For the same molecule, the “expression of mRNA in mice” value (female BALB/C mice; 48 h) was 957.07 times, the “expression amount, times that of YK-309” value (female BALB/C mice; 48 h) was 149.75 times and the “expression amount, times that of YK-313” value (female BALB/C mice; 48 h) was 38.38 times. The “expression amount, times that of YK-321” value (female BALB/C mice; 48 h) was 26.83 times, the “average radiation intensity, times that of compound 21” value (female BALB/C mice; 48 h) was 31.67 times and the “average radiation intensity, times that of compound 23” value (female BALB/C mice; 48 h) was 29.62 times. For the same molecule, the average radiation intensity (female BALB/C mice; 48 h after intramuscular injection) was 981000, the “average radiation intensity, times that of ALC-0315” value (female BALB/C mice; 7 d) was 16.67 times and the “average radiation intensity, times that of HHMA” value (female BALB/C mice; 7 d) was 20.01 times. The “average radiation intensity, times that of SM-102” value (female BALB/C mice; 7 d) was 17.74 times, the “expression of mRNA in mice” value (female BALB/C mice; 7 d) was 305.89 times and the “expression amount, times that of YK-309” value (female BALB/C mice; 7 d) was 93.52 times. The “expression amount, times that of YK-313” value (female BALB/C mice; 7 d) was 36.31 times, the “expression amount, times that of YK-321” value (female BALB/C mice; 7 d) was 17.84 times and ~17 times and the “average radiation intensity, times that of compound 21” value (female BALB/C mice; 7 d) was 18.23 times. For the same molecule, the “average radiation intensity, times that of compound 23” value (female BALB/C mice; 7 d) was 18.82 times, the average radiation intensity (female BALB/C mice; 7 d after intramuscular injection) was 117462 and the “PDI (%)” value [1] was 12.4%. For the same molecule, the “Particle size (nm)” value [1] was 192 nm, the “Cell survival rate (%)” value (293T cells [2]; LNP formulation of Fluc-mRNA, 24 hours, CCK-8) was 82.10% and the “cell survival rate higher than ALC-0315” value (293T cells [2]; difference of survival rates, comparator ALC-0315) was 31.07% and ~30%. For the same molecule, the “cell survival rate higher than HHMA” value (293T cells [2]; difference of survival rates, comparator HHMA) was 15.63% and ~15%, the “cell survival rate higher than Lipofectamine 3000” value (293T cells [2]; difference of survival rates, comparator Lipofectamine 3000) was 57.09% and the “cell survival rate higher than SM-102” value (293T cells [2]; difference of survival rates, comparator SM-102) was 12.65% and ~12%. For the same molecule, the “cell survival rate higher than YK-301” value (293T cells [2]; difference of survival rates, comparator YK-301) was 29.14%, the “cell survival rate higher than YK-302” value (293T cells [2]; difference of survival rates, comparator YK-302) was 65.67% and ~65% and ~50% and the “cell survival rate higher than YK-303” value (293T cells [2]; difference of survival rates, comparator YK-303) was 18.78%. For the same molecule, the “cell survival rate higher than YK-304” value (293T cells [2]; difference of survival rates, comparator YK-304) was 47.94%, the “cell survival rate higher than YK-306” value (293T cells [2]; difference of survival rates, comparator YK-306) was 39.91% and the “cell survival rate higher than YK-307” value (293T cells [2]; difference of survival rates, comparator YK-307) was 20.96%. The “cell survival rate higher than YK-308” value (293T cells [2]; difference of survival rates, comparator YK-308) was 11.11%, the “cell survival rate higher than YK-309” value (293T cells [2]; difference of survival rates, comparator YK-309) was 50.49% and the “cell survival rate higher than YK-311” value (293T cells [2]; difference of survival rates, comparator YK-311) was 12.04%. For the same molecule, the “cell survival rate higher than YK-313” value (293T cells [2]; difference of survival rates, comparator YK-313) was 13.17%, the “cell survival rate higher than YK-314” value (293T cells [2]; difference of survival rates, comparator YK-314) was 14.22% and the “cell survival rate higher than YK-315” value (293T cells [2]; difference of survival rates, comparator YK-315) was 10.82%. For the same molecule, the “cell survival rate higher than YK-316” value (293T cells [2]; difference of survival rates, comparator YK-316) was 11.57%, the “cell survival rate higher than YK-317” value (293T cells [2]; difference of survival rates, comparator YK-317) was 22.92% and ~20% and the “cell survival rate higher than YK-320” value (293T cells [2]; difference of survival rates, comparator YK-320) was 11.03%. The “cell survival rate higher than YK-321” value (293T cells [2]; difference of survival rates, comparator YK-321) was 9.76%, the “cell survival rate higher than compound 21” value (293T cells [2]; difference of survival rates, comparator compound 21) was 11.89% and the “cell survival rate higher than compound 23” value (293T cells [2]; difference of survival rates, comparator compound 23) was 10.60%. For the same molecule, the “Relative light unit (RLU)” value (293T cells [3]; LNP formulation of Fluc-mRNA, 96-well plate, 24 hours) was 25797040 RLU, the “Multiples (YK-305)” value (293T cells [3]; RLU of YK-305 / RLU of the lipid of the line) was 1.06 and the “Multiples (YK-310)” value (293T cells [3]; RLU of YK-310 / RLU of the lipid of the line) was 1.00. The “Multiples (YK-312)” value (293T cells [3]; RLU of YK-312 / RLU of the lipid of the line) was 0.78, the “Multiples (YK-318)” value (293T cells [3]; RLU of YK-318 / RLU of the lipid of the line, Tables 5, 7, 11) was 0.43 and the “Multiples (YK-319)” value (293T cells [3]; RLU of YK-319 / RLU of the lipid of the line, Tables 5, 7, 11) was 0.95. The “Ratio relative to SM-102” value (293T cells [3]; RLU of the lipid / RLU of SM-102, times that of SM-102) was 16.08, the “cell transfection efficiency, times that of ALC-0315” value (293T cells [3]; comparator ALC-0315) was 12.69 times and the “cell transfection efficiency, times that of HHMA” value (293T cells [3]; comparator HHMA) was 12.86 times. The “cell transfection efficiency, times that of Lipofectamine 3000” value (293T cells [3]; comparator Lipofectamine 3000) was 21.76 times, the “cell transfection efficiency, times that of YK-009” value (293T cells [3]; comparator YK-009) was 5.04 times and the “cell transfection efficiency, times that of YK-301” value (293T cells [3]; comparator YK-301) was 30.62 times. For the same molecule, the “cell transfection efficiency, times that of YK-302” value (293T cells [3]; comparator YK-302) was 928.69 times, the “cell transfection efficiency, times that of YK-303” value (293T cells [3]; comparator YK-303) was 41.19 times and the “cell transfection efficiency, times that of YK-304” value (293T cells [3]; comparator YK-304) was ~1200 times and 1247.08 times. For the same molecule, the “cell transfection efficiency, times that of YK-306” value (293T cells [3]; comparator YK-306) was 11.74 times, the “cell transfection efficiency, times that of YK-307” value (293T cells [3]; comparator YK-307) was 5.66 times and the “cell transfection efficiency, times that of YK-308” value (293T cells [3]; comparator YK-308) was 5.12 times. The “cell transfection efficiency, times that of YK-309” value (293T cells [3]; comparator YK-309) was ~200 times and 205.77 times, the “cell transfection efficiency, times that of YK-311” value (293T cells [3]; comparator YK-311) was 13.14 times and the “cell transfection efficiency, times that of YK-313” value (293T cells [3]; comparator YK-313) was 29.77 times. The “cell transfection efficiency, times that of YK-314” value (293T cells [3]; comparator YK-314) was 47.12 times, the “cell transfection efficiency, times that of YK-315” value (293T cells [3]; comparator YK-315) was 16.25 times and the “cell transfection efficiency, times that of YK-316” value (293T cells [3]; comparator YK-316) was 5.36 times. The “cell transfection efficiency, times that of YK-317” value (293T cells [3]; comparator YK-317) was 7.16 times, the “cell transfection efficiency, times that of YK-320” value (293T cells [3]; comparator YK-320) was 9.54 times and the “cell transfection efficiency, times that of YK-321” value (293T cells [3]; comparator YK-321) was 18.38 times. For the same molecule, the “cell transfection efficiency, times that of compound 21” value (293T cells [3]; comparator compound 21) was 18.01 times and the “cell transfection efficiency, times that of compound 23” value (293T cells [3]; comparator compound 23) was 19.02 times.
